What was measured:
[1] = pKa of the acid herbicide in the formulation, measured; format: physicochemical; settings: 2,4-D acid in PCC-1133; glyphosate acid in PCC-1168
[2] = per approximately 100 grams of an aqueous solution (one weight percent); depending on temperature and pH; cited from earlier work

Compound	pKa [1]	solubility in water or acidic water [2]
O=C(O)COc1ccc(Cl)cc1Cl [2,4-D acid, 2,4-dichlorophenoxy acetic acid]	2.87	–
O=C(O)CNCP(=O)(O)O [glyphosate acid, N-(phosphonomethyl)glycine]	~2.5	approximately 1 gram
